Data on one molecule can be found in patent US20190060249A1 (priority 2017, published 2019).

Data set [1] deals with SSC90 (HPV-positive) head and neck squamous cell carcinoma cell line. Nature of the data set: Xenograft study, SSC90. The following applies: Alda-341 from one week ahead of irradiation, during and post; 30 Gy over 5 fractions. Type of data set: in vivo, SCID mice. As to the method:
Xenograft study: Six-week old SCID mice were purchased from the Jackson laboratory and five mice per group were used. SCC90 and SAS cells (2×10^6 cells/injection) were implanted into both flanks of each mouse. Alda-341 treated one week ahead of irradiation and continued during and post radiation. Total 30 Gy over 5 fractions in a week was delivered to the tumor with the rest of the body shielded. Tumor size was measured every 1-2 days. Tumor volume was calculated by the formula (π×length×width×height)/6.

Data set [2] has as its system E13.5 embryonic SMG epithelia. Nature of the data set: Embryonic epithelial rudiment cultures. Type of data set: cell-based, mouse. An excerpt:
Embryonic epithelial rudiment cultures: Epithelia and mesenchyme were separated using dispase treatment and mechanical dissection and cultured in a drop of laminin on a nucleopore filter over serum-free DMEM/F12 containing holotransferrin and ascorbic acid (complete media) as described for the E13 submandibular gland (Steinberg, Z., Myers, C., Heim, V. M., Lathrop, C. A., Rebustini, I. T., Stewart, J. S., Larsen, M., and Hoffman, M. P. (2005) FGFR2b signaling regulates ex vivo submandibular gland epithelial cell proliferation and branching morphogenesis. Development (Cambridge, England) 132, 1223-1234). Epithelia were cultured with 400 ng/ml FGF10 (R&D Systems) and 0.5 μl/ml heparin sulfate (Sigma Aldrich) in the presence or absence of 25-200 μM ALDH341 or vehicle (PEG) and were subjected to RNA isolation or fixed for immunostaining after 24-48 h.
N=6-7 epithelia per group.
[…] confocal section of all three markers (top) and averaged confocal sections of c-KIT only (bottom).
Samples were tested in triplicate.
Immunohistochemistry: Embryonic rudiment immunofluorescence analysis has been previously described in, Knox, S. M., Lombaert, I. M., Reed, X., Vitale-Cross, L., Gutkind, J. S., and Hoffman, M. P. (2010) Parasympathetic innervation maintains epithelial progenitor cells during salivary organogenesis. Science (New York, N.Y.) 329, 1645-1647. In brief, tissue was fixed with 4% PFA for 20-30 min followed by permeabilizing with 0.1-0.3% Triton-X. Tissue was blocked overnight at 4° C. with 10% Donkey Serum (Jackson Laboratories), 1% BSA (Sigma Aldrich), and MOM IgG-blocking reagent (Vector Laboratories) in 0.01% PBS-Tween-20. SGs were incubated with primary antibodies overnight at 4° C.: rabbit anti-cKIT (1:200, Santa Cruz Biotech, M14), and rat anti-E-cadherin (1:300, Life Technologies, 13-1900). Antibodies were detected using Cy2-, Cy3- or Cy5-conjugated secondary Fab fragment antibodies (Jackson Laboratories) and nuclei stained using Hoescht 33342 (1:1000, Sigma Aldrich). Fluorescence was analyzed using a Leica Sp5 confocal microscope and NIH ImageJ software.
qPCR: RNA was isolated from whole tissue using RNAqueous Micro Kit (Ambion). Total RNA samples were DNase-treated (Ambion), prior to cDNA synthesis using SuperScript reagents (Invitrogen). SYBRgreen qPCR was performed using 1 ng of cDNA and primers designed using Primer3 and Beacon Designer software or found using PrimerBank (http://pga.mgh.harvard.edu/primerbank/). Melt-curves and primer efficiency were determined as previously described (Hoffman, M. P., Kidder, B. L., Steinberg, Z. L., Lakhani, S., Ho, S., Kleinman, H K., and Larsen, M. (2002) Gene expression profiles of mouse submandibular gland development: FGFR1 regulates branching morphogenesis in vitro through BMP- and FGF-dependent mechanisms. Development (Cambridge, England) 129, 5767-5778). Gene expression was normalized to the housekeeping gene S29 (Rps29).

The next data set deals with T1, ALDH1A1 (Homo sapiens, UniProt P00352).
T1 sequence (P00352 1-501): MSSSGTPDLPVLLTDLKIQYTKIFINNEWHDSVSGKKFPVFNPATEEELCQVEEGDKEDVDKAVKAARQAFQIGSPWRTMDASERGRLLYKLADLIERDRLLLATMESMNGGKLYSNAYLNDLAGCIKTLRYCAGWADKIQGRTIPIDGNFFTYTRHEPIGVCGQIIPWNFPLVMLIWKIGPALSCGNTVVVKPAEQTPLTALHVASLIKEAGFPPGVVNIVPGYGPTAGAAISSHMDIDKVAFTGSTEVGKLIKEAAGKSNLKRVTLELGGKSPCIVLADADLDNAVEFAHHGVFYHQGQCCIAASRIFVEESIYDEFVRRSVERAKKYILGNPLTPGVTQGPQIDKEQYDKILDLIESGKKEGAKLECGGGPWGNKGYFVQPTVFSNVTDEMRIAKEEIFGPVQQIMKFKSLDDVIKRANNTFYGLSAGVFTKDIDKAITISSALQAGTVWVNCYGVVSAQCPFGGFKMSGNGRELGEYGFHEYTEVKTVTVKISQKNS
As to the kind of experiment: ALDH enzymatic assay, recombinant ALDH1A1. Type of data set: biochemical. The settings on record: 5 μg/ml recombinant enzyme, 10 mM acetaldehyde, 20 μM Alda-341. How it is done:
ALDH enzymatic assay: ALDH1A1, ALDH1A2, 2, 3A1, 3A2, 4A1, 5A1, 7A1 were measured as previously described using 5 μg/ml of recombinant protein (Chen, C. H., Cruz, L. A., and Mochly-Rosen, D. (2015) Pharmacological recruitment of aldehyde dehydrogenase 3A1 (ALDH3A1) to assist ALDH2 in acetaldehyde and ethanol metabolism in vivo. Proceedings of the National Academy of Sciences of the United States of America 112, 3074-3079). […] Assays were conducted in 50 mM NaPPi buffer (pH 7.4) in the presence of 2.5 mM NAD^+ and 10 mM substrate and measured in triplicate at 25° C. Dose response curve fits and EC50's were calculated using GraphPad Prism 7 software.

Setting [3] is: 200 μM Alda-341, RT-qPCR vs vehicle control.

In the case of `C=C(C)[C@H]1CC=C(C)CC1` [Alda-341, D-limonene], the “tumor growth and protection of tumors from radiation, SSC90 xenograft” value in data set [1] is “did not increase tumor growth or protect tumors from radiation”. Besides, the “localisation of c-Kit+ cells (immunofluorescence)” value in data set [2] (200 μM Alda-341, 24 h) is on record as “limited to the end buds only”. For the same molecule, in data set [2] (setting [3]), the “expression of acinar progenitor marker Sox10” value is “Increased expression”, the “transcript level of acinar maturation marker Aqp5” value is “increased transcript levels” and the “transcript level of acinar maturation marker Mist1” value is on record as “increased transcript levels”. Moreover, in data set [2] (cultured 24 h, 100 μM and 200 μM Alda-341), the “number of end buds” value is recorded as “dose-dependent increase”. The epithelial area result in data set [2] (cultured 24 h, 100 μM and 200 μM Alda-341, normalized to vehicle control) was “dose-dependent increase”. For the same molecule, on ALDH1A1, the “catalytic activity of ALDH1A1” value is given as “did not increase”.
